According to patent US20250203808A1, “REFRIGERANTS FOR AND METHODS OF COOLING ELECTRONICS” (HONEYWELL INTERNATIONAL INC., priority 2023, published 2025):
Like-named read-outs stand apart in the source and are kept apart here.

Assays:
[1] = background, commercial 3M fluids; cited from earlier work
[2] = background, commercial 3M fluids; cited from earlier work; remark: listed apart in the source
[3] = Boiling point determination; format: physicochemical; conditions: for boiling point: Table 1, values understood as 'about'; for BP: Table E1
Procedure: (§1) The boiling point (“BP”) and dielectric constant (“Dk”) of HFO-1438ez(E) and HFO-1438ez(Z) were determined and the results are reported below in Table E1. Static dielectric constant for new molecules was calculated using Kirkwood theory as described in papers by Wang and Anderko [P. Wang and A. Anderko, Computation of dielectric constants of solvent mixtures and electrolyte solutions, Fluid Phase Equilibria 186 (2001) 103-122] and Harvey and Lemmon [A. H. Harvey and E. W. Lemmon, Method for estimating dielectric constant of natural gas mixtures, International Journal of Thermophysics 26 (2005) 31-46]. The dielectric property of each of HFO-1438ez(E) and HFO-1438ez(Z) was determined using the Agilent 85070 Dielectric Probe. All measurements were made at ambient pressure and room temperature (approximately 23° C.). Prior to making measurements, the system was calibrated from 1 GHz to 20 GHz with an open circuit, a short circuit, and DI water (@22.4° C.) standard. The result of the calibration is shown in the Table E1 below for DI H2O, and is consistent with DI water at 22.4° C. The accuracy of the probe is given as: Dielectric constant, er′=er′+/−0.05|er*| with er″=er″+/−0.05|er*| and (loss=er″/er′).

[4] = Dielectric constant and dissipation factor, Agilent 85070 Dielectric Probe, 20 GHz; format: physicochemical; conditions: values 'about'; for Dielectric Constant (20 GHz): room temperature
Procedure: “Dielectric Constant” means the dielectric constant as measured in accordance with ASTM D150-11 at room temperature at 20 giga hertz (GHz).
as §1

Compound	boiling point [1]	dielectric constant [2]	boiling point [3]	BP [3]	Dielectric Constant (20 GHz) [4]	Dissipation Factor (20 GHz) [4]
COC(F)(F)C(F)(F)C(F)(F)F [HFE7000, 1-methoxyheptafluoropropane (C3F7OCH3)]	34 °C	7.4	–	–	–	–
FC(F)(F)N1C(F)(F)C(F)(F)OC(F)(F)C1(F)F [FC-3284]	50 °C	–	–	–	–	–
F/C=C\C(F)(C(F)(F)F)C(F)(F)F [HFO-1438ezy(Z), (Z)-1,3,4,4,4-pentafluoro-(3-trifluoromethyl)-but-1-ene]	–	–	55 °C	55 °C	7.8	–
F/C=C/C(F)(C(F)(F)F)C(F)(F)F [HFO-1438ezy(E), (E)-1,3,4,4,4-pentafluoro-(3-trifluoromethyl)-but-1-ene]	–	–	28 °C	30 °C	2.43	0.09
